We go through 24 compounds from patent publication US9394305B2, “Substituted imidazo[1,2-a]pyridine compounds as tropomyosin receptor kinase a (TrkA) inhibitors” (Dr. Reddy's Laboratories Ltd., priority 2014, dated 2016).

pIC50: −log10 of the molar value. Bounds are passed on as bounds.

The first test deals with T1, TrkA kinase (Homo sapiens, UniProt P04629).
T1 construct: purchased Upstate, USA
T1 sequence (P04629 33-796): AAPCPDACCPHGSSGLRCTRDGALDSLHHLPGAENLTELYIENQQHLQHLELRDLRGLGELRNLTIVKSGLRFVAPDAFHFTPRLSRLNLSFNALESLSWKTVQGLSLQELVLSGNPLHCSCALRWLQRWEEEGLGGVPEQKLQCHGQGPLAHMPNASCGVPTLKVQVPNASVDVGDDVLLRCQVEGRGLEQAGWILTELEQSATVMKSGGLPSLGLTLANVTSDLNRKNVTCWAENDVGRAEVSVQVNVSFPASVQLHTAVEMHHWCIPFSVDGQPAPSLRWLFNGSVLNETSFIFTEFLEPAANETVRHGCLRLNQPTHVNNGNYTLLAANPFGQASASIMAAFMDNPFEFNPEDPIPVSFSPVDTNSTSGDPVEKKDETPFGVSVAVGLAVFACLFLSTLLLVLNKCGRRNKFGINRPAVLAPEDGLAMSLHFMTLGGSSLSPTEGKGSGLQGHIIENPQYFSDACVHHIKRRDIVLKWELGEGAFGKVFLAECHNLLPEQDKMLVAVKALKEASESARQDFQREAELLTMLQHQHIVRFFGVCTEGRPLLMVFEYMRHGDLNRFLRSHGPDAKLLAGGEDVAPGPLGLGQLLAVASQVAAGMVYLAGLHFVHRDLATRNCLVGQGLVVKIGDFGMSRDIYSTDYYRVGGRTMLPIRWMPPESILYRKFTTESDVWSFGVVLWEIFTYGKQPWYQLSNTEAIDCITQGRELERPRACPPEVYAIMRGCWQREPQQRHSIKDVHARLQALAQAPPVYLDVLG
Put plainly: In vitro TrkA inhibitory activity using TR-FRET assay. Format: biochemical. The conditions noted are these: 5 ng TrkA, 500 μM ATP, values given as bins, read-out: TrkA inhibition in-vitro IC50. On the procedure:
Compounds were screened in the TR-FRET assay with TrkA kinase. 5 ng of TrkA [Upstate, USA] kinase was used for assay. The compound was incubated with the kinase for 30 minutes at 20-35° C. After the incubation, substrate mix [40 nM Ultra light poly GT (Perkin Elmer, USA) and 500 μM ATP] was added. The above reaction was stopped by the addition of 40 mM EDTA after 30 minutes. The Eu-labelled antiphospho-tyrosine antibody [Perkin Elmer, USA] was added at 0.5 nM and the fluorescence emission at 615 nm/665 nm [excitation at 340 nm] was measured. The compounds were initially screened at 100 nM, 1 μM and 10 μM concentrations. The potent compounds with >25% inhibition at 1 μM of TrkA were taken for the full dose response studies. The final DMSO concentration in the assay was […]. For IC50 determination, ⅓^rd serial dilution was made from the 20 mM DMSO stock solution. 2 μl of these were transferred to the test wells containing 20 μl reaction mixture [Total reaction volume 22 μl]. The fluorescence was measured in Perkin Elmer Wallac 1420 Multilabel Counter Victor 3. The IC50 was determined by fitting the dose response data to a sigmoidal curve fitting equation using GraphPad Prism software version 5.
As to `O=C(NS(=O)(=O)N(CC1CC1)c1cccnc1)c1cnc2ccc(N3CCC[C@@H]3c3cc(F)ccc3F)cn12` [Example 44, (R)-N-(N-(cyclopropylmethyl)-N-(pyridin-3-yl)sulfamoyl)-6-(2-(2,5-difluorophenyl)pyrrolidin-1-yl)imidazo[1,2-a]pyridine-3-carboxamide], the pIC50 (in general, the negative decadic logarithm of the IC50, by convention in mol/L) is 7.00 to 7.30.

`CN(c1cnccn1)S(=O)(=O)NC(=O)c1cnc2ccc(N3CCC[C@@H]3c3cc(F)ccc3F)cn12` [Example 45, (R)-6-(2-(2,5-difluorophenyl)pyrrolidin-1-yl)-N-(N-methyl-N-(pyrazin-2-yl)sulfamoyl)imidazo[1,2-a]pyridine-3-carboxamide]: the pIC50 is at least 7.30.

For the compound `O=C(NS(=O)(=O)c1ccc(-n2ccnc2)nc1)c1cnc2ccc(N3CCC[C@@H]3c3cc(F)ccc3F)cn12` [Example 46, (R)-N-((6-(1H-imidazol-1-yl)pyridin-3-yl)sulfonyl)-6-(2-(2,5-difluorophenyl)pyrrolidin-1-yl)imidazo[1,2-a]pyridine-3-carboxamide], the pIC50 was 7.00 to 7.30.

Regarding `CN(c1ccccn1)S(=O)(=O)NC(=O)c1cnc2ccc(N3CCC[C@@H]3c3cc(F)ccc3F)cn12` [Example 47, (R)-6-(2-(2,5-difluorophenyl)pyrrolidin-1-yl)-N-(N-methyl-N-(pyridin-2-yl)sulfamoyl)imidazo[1,2-a]pyridine-3-carboxamide], the pIC50 was at least 7.30.

Regarding `CN(c1nccs1)S(=O)(=O)NC(=O)c1cnc2ccc(N3CCC[C@@H]3c3cc(F)ccc3F)cn12` [Example 48, (R)-6-(2-(2,5-difluorophenyl)pyrrolidin-1-yl)-N-(N-methyl-N-(thiazol-2-yl)sulfamoyl)imidazo[1,2-a]pyridine-3-carboxamide], the pIC50 was at least 7.30.

Regarding `CC1(S(=O)(=O)NC(=O)c2cnc3ccc(N4CCCC4c4cc(F)cc5c4OCCO5)cn23)CC1` (stereo not drawn) [Example 50, 6-(2-(7-fluoro-2,3-dihydrobenzo[b][1,4]dioxin-5-yl)pyrrolidin-1-yl)-N-((1-methylcyclopropyl)sulfonyl)imidazo[1,2-a]pyridine-3-carboxamide], the pIC50 is 6.30 to 7.00.

As to `CCCN(C)S(=O)(=O)NC(=O)c1cnc2ccc(N3CCC[C@@H]3c3cc(F)ccc3OC)cn12` [Example 53], the pIC50 was 7.00 to 7.30.

Take `CCN(C)S(=O)(=O)NC(=O)c1cnc2ccc(N3CCC[C@@H]3c3cc(F)ccc3OC)cn12` [Example 55, (R)-N-(N-ethyl-N-methylsulfamoyl)-6-(2-(5-fluoro-2-methoxyphenyl)pyrrolidin-1-yl)imidazo[1,2-a]pyridine-3-carboxamide]: the pIC50 is at least 7.30.

With `COc1ccc(F)cc1[C@H]1CCCN1c1ccc2ncc(C(=O)NS(=O)(=O)N(C)CCF)n2c1` [Example 56, (R)-6-(2-(5-fluoro-2-methoxyphenyl)pyrrolidin-1-yl)-N-(N-(2-fluoroethyl)-N-methylsulfamoyl)imidazo[1,2-a]pyridine-3-carboxamide], the pIC50 is at least 7.30.

Consider `CCN(C)S(=O)(=O)NC(=O)c1cnc2ccc(N3C[C@@H](F)C[C@@H]3c3cc(F)ccc3OCCF)cn12` [Example 57, N-(N-ethyl-N-methylsulfamoyl)-6-((2R,4S)-4-fluoro-2-(5-fluoro-2-(2-fluoroethoxy)phenyl)pyrrolidin-1-yl)imidazo[1,2-a]pyridine-3-carboxamide], for which the pIC50 was at least 7.30.

As to `CC(C)(C)S(=O)(=O)NC(=O)c1cnc2ccc(N3C[C@@H](F)C[C@@H]3c3cc(F)ccc3OCCF)cn12` [Example 58, N-(tert-butylsulfonyl)-6-((2R,4S)-4-fluoro-2-(5-fluoro-2-(2-fluoroethoxy)phenyl)pyrrolidin-1-yl)imidazo[1,2-a] pyridine-3-carboxamide], the pIC50 is at least 7.30.

Consider `CC(C)(C)S(=O)(=O)NC(=O)c1cnc2ccc(N3C[C@@H](F)C[C@@H]3c3cc(F)ccc3O[C@@H]3CCOC3)cn12` [Example 59, N-(tert-butylsulfonyl)-6-((2R,4S)-4-fluoro-2-(5-fluoro-2-(((R)-tetrahydrofuran-3-yl)oxy)phenyl)pyrrolidin-1-yl)imidazo[1,2-a]pyridine-3-carboxamide], for which the pIC50 is at least 7.30.

Regarding `CCN(C)S(=O)(=O)NC(=O)c1cnc2ccc(N3C[C@@H](F)C[C@@H]3c3cc(F)ccc3O[C@@H]3CCOC3)cn12` [Example 60, N-(N-ethyl-N-methylsulfamoyl)-6-((2R,4S)-4-fluoro-2-(5-fluoro-2-(((R)-tetrahydrofuran-3-yl)oxy)phenyl)pyrrolidin-1-yl)imidazo[1,2-a]pyridine-3-carboxamide], the pIC50 was at least 7.30.

In the case of `CN(CCF)S(=O)(=O)NC(=O)c1cnc2ccc(N3C[C@@H](F)C[C@@H]3c3cc(F)ccc3O[C@@H]3CCOC3)cn12` [Example 62, 6-((2R,4S)-4-fluoro-2-(5-fluoro-2-(((R)-tetrahydrofuran-3-yl)oxy)phenyl)pyrrolidin-1-yl)-N-(N-(2-fluoroethyl)-N-methylsulfamoyl)imidazo[1,2-a]pyridine-3-carboxamide], the pIC50 is at least 7.30.

For `CCN(C)S(=O)(=O)NC(=O)c1cnc2ccc(N3C[C@@H](F)C[C@@H]3c3cc(F)cc4c3OCCO4)cn12` [Example 68, N-(N-ethyl-N-methylsulfamoyl)-6-((2R,4S)-4-fluoro-2-(7-fluoro-2,3-dihydrobenzo[b][1,4]dioxin-5-yl)pyrrolidin-1-yl)imidazo[1,2-a]pyridine-3-carboxamide], the pIC50 was 7.00 to 7.30.

As for `CCN(CC)S(=O)(=O)NC(=O)c1cnc2ccc(N3C[C@@H](F)C[C@@H]3c3cc(F)ccc3O[C@@H]3CCOC3)cn12` [Example 74, N—(N,N-diethylsulfamoyl)-6-((2R,4S)-4-fluoro-2-(5-fluoro-2-(((R)-tetrahydrofuran-3-yl)oxy)phenyl)pyrrolidin-1-yl)imidazo[1,2-a]pyridine-3-carboxamide], the pIC50 was at least 7.30.

On to `CCN(CCF)S(=O)(=O)NC(=O)c1cnc2ccc(N3C[C@@H](F)C[C@@H]3c3cc(F)ccc3O[C@@H]3CCOC3)cn12` [Example 75, N—(N-ethyl-N-(2-fluoroethyl)sulfamoyl)-6-((2R,4S)-4-fluoro-2-(5-fluoro-2-(((R)-tetrahydrofuran-3-yl)oxy)phenyl)pyrrolidin-1-yl)imidazo[1,2-a]pyridine-3-carboxamide], for which the pIC50 was at least 7.30.

As for `COCCN(C)S(=O)(=O)NC(=O)c1cnc2ccc(N3C[C@@H](F)C[C@@H]3c3cc(F)ccc3O[C@@H]3CCOC3)cn12` [Example 76, 6-((2R,4S)-4-fluoro-2-(5-fluoro-2-(((R)-tetrahydrofuran-3-yl)oxy)phenyl)pyrrolidin-1-yl)-N—(N-(2-methoxyethyl)-N-methylsulfamoyl)imidazo[1,2-a]pyridine-3-carboxamide], the pIC50 was at least 7.30.

For `CN(c1nccs1)S(=O)(=O)NC(=O)c1cnc2ccc(N3C[C@@H](F)C[C@@H]3c3cc(F)ccc3O[C@@H]3CCOC3)cn12` [Example 77, 6-((2R,4S)-4-fluoro-2-(5-fluoro-2-(((R)-tetrahydrofuran-3-yl)oxy)phenyl)pyrrolidin-1-yl)-N—(N-methyl-N-(thiazol-2-yl)sulfamoyl)imidazo[1,2-a]pyridine-3-carboxamide], the pIC50 was at least 7.30.

Turning to `Cc1ccc(N(C)S(=O)(=O)NC(=O)c2cnc3ccc(N4C[C@@H](F)C[C@@H]4c4cc(F)ccc4O[C@@H]4CCOC4)cn23)nn1` [Example 78, 6-((2R,4S)-4-fluoro-2-(5-fluoro-2-(((R)-tetrahydrofuran-3-yl)oxy)phenyl)pyrrolidin-1-yl)-N—(N-methyl-N-(6-methylpyridazin-3-yl)sulfamoyl)imidazo[1,2-a]pyridine-3-carboxamide], the pIC50 was at least 7.30.

`CC(C)(C)S(=O)(=O)NC(=O)c1cnc2ccc(N3CCC[C@@H]3c3cc(F)ccc3OC3CCOCC3)cn12` [Example 79, (R)—N-(tert-butylsulfonyl)-6-(2-(5-fluoro-2-((tetrahydro-2H-pyran-4-yl)oxy)phenyl)pyrrolidin-1-yl)imidazo[1,2-a]pyridine-3-carboxamide]: the pIC50 was 6.30 to 7.00.

For the compound `CCN(C)S(=O)(=O)NC(=O)c1cnc2ccc(N3CCC[C@@H]3c3cc(F)ccc3OC3CCOCC3)cn12` [Example 80, (R)—N—(N-ethyl-N-methylsulfamoyl)-6-(2-(5-fluoro-2-((tetrahydro-2H-pyran-4-yl)oxy)phenyl)pyrrolidin-1-yl)imidazo[1,2-a]pyridine-3-carboxamide], the pIC50 is 7.00 to 7.30.

Staying with this test, now noted: 5 ng TrkA, 500 μM ATP, values given as bins, read-out: TrkA inhibitory activity in-vitro IC50.
Turning to `O=C(NS(=O)(=O)c1ccc(N2CC[C@H](O)C2)cc1)c1cnc2ccc(N3CCCCC3c3cc(F)ccc3F)cn12` (stereo partly drawn) [Example 49, 6-(2-(2,5-difluorophenyl)piperidin-1-yl)-N-((4-((S)-3-hydroxypyrrolidin-1-yl)phenyl)sulfonyl)imidazo[1,2-a]pyridine-3-carboxamide], the pIC50 was 5.00 to 6.00.

Consider `O=C(NS(=O)(=O)c1ccc(N2CC[C@H](O)C2)nc1)c1cnc2ccc(N3CCCCC3c3cc(F)ccc3F)cn12` (stereo partly drawn) [Example 51, 6-(2-(2,5-difluorophenyl)piperidin-1-yl)-N-((6-((S)-3-hydroxypyrrolidin-1-yl)pyridin-3-yl)sulfonyl)imidazo[1,2-a]pyridine-3-carboxamide], for which the pIC50 is 5.00 to 6.00.
